How the values were obtained:
Drosophila suzukii [1] = test: Behavior assay: courtship behavior of wild type 4-day-old males towards perfumed flies; assay type: in vivo; settings: compound in n-hexane painted onto abdomen; 4 tested conditions (perfumed 1-day-old females, 1-day-old males, 4-day-old females, 4-day-old males) paired with wild type 4-day-old males; filmed two hours; FIG. 1
Method: (§1) Drosophila suzukii adults were caught in the wild (Sint-Truiden, Limburg, Belgium). The flies were reared in quarantined facilities at 21° C. on Cornmeal-sucrose-yeast-agar medium.
(§2) All flies were collected within 12 hours of eclosing, after which they were used to make one-day-old samples or aged to four days old. The four-day-old socially nave flies were aged separated from the other sex, contrary to the socially experienced flies, which were aged, mixed with the other sex.
(§3) N-hexane (95%), n-heneicosane (98%), n-tricosane (98%), (Z)-7-tricosene (98%) and (Z)-9-tricosene (97%) were bought from Thermo-Fischer and Sigma Aldrich. (Z)-5-tricosene (99%) and 2-methyloctacosane (95%) were synthesized by a hired company, Ecosynth (Gent, Belgium). These compounds were dissolved in n-hexane (95%) and painted onto the abdomen of Drosophila suzukii flies using number 2 paintbrushes. The four-day-old flies were perfumed 24 hours prior to testing, one-day-old flies 1 hour prior to testing.
Behavior assays were performed in a room with regulated temperature (21° C.) and always at the same time (10 h30). The perfumed Drosophila suzukii flies were put individually with a wild type four-day-old Drosophila suzukii male in a circular arena (3 cm diameter). Every couple was filmed for two hours, due to the low activity rate of the species, using Sony Handycams CX240. Subsequently these videos were analyzed for courtship behavior and copulation based on Mazzoni et al. 2013 (Plos One 8(11): e80708). The behavioral data was analyzed using a contingency table and followed by t-tests, as well as one-way ANOVA tests for the continuous data.
Behavior experiments were performed as follows. Four different conditions of flies were perfumed: one-day-old females, one-day-old males, four-day-old females and four-day-old males. These perfumed flies were paired with wild type four-day-old males. Subjects were scored for both courtship modules as well as copulation. As a control the solvent for the perfumes (n-hexane) was used.

Drosophila suzukii [2] = test: Behavior assay: copulation between wild type 4-day-old males and perfumed 4-day-old females; assay type: in vivo; settings: perfumed four-day-old females paired with wild type four-day-old males; filmed two hours; FIG. 3
Method: as §1, §2
as §3, with “The four-day-old flies were perfumed 24 hours prior to testing, one-day-old flies 1 hour prior to testing.” left out
Behavior assays were performed in a room with regulated temperature (21° C.) and always at the same time (10 h30). […] Subsequently these videos were analyzed for courtship behavior and copulation based on Mazzoni et al. 2013 (Plos One 8(11): e80708). The behavioral data was analyzed using a contingency table and followed by t-tests, as well as one-way ANOVA tests for the continuous data.
Behavior experiments were performed as follows. […] Subjects were scored for both courtship modules as well as copulation. […]

Row | Compound | effect on occurrence of courtship (Drosophila suzukii [1]) | effect on occurrence of copulation (Drosophila suzukii [2])
1 | CCCCCCCCCCCCCCCCCCCCCCCCCCC(C)C [2-methyloctacosane] | no significant differences | 
2 | CCCCCCCC/C=C\CCCCCCCCCCCCC [(Z)-9-tricosene] | no significant differences | significantly decreased
3 | CCCC/C=C\CCCCCCCCCCCCCCCCC [(Z)-5-tricosene] | no significant differences | 
4 | CCCCCCCCCCCCCCCCCCCCC [n-heneicosane] | no significant differences | 
5 | CCCCCCCCCCCCCCCCCCCCCCC [n-tricosane] | no significant differences | 
6 | CCCCCC/C=C\CCCCCCCCCCCCCCC [(Z)-7-tricosene] | no significant differences | significantly decreased

Source: patent publication US10986835B2, “Use of 9-tricosene to control Drosophila suzukii” (Globachem NV, priority 2016, dated 2021)
